Data taken from patent publication US20250346587A1, “NITROGEN-CONTAINING FIVE-MEMBERED HETEROCYCLIC DERIVATIVES AS CHECKPOINT KINASE 1 INHIBITOR AND USES THEREOF” (SPEROGENIX THERAPEUTICS LIMITED, priority 2022, published 2025).
≈ marks a conversion by molar mass, not a printed value.

What was measured:
[1] = Microsomal stability assay, mouse liver microsome; format: in vitro ADME; settings: liver microsomes, pH 7.4, 0.2 mg/mL, 1 μM compound, 37° C., read-out: Clint MLM
Method: (§1) Incubation mixture contained 0.2 mg/mL microsomes, 1 mmol NADPH, and test compound at 1 μM in 100 mmol potassium phosphate buffer at pH 7.4. The mixtures were incubated at 37° C. for 5, 15, and 30 minutes. Aliquots of the mixtures were taken at 0, 5, 15 and 30 minutes and quenched with chilled Acetonitrile:Methanol (50:50) containing internal standard. Following completion of incubation, samples were centrifuged at 4,000 rpm at 4° C. The supernatant was analyzed by LC-MS/MS and half-life, as well as intrinsic clearance (Clint), were calculated.

[2] = Microsomal stability assay, human liver microsome; format: in vitro ADME; settings: liver microsomes, pH 7.4, 0.2 mg/mL, 1 μM compound, 37° C., read-out: Clint HLM
Method: as §1

CHK-1 kinase = CHK-1 kinase (Homo sapiens (Human), UniProt O14757); assay: CHK-1 % inhibition kinase assay (TR-FRET); format: biochemical; settings: ATP 15 μM; for inhibition at 0.03 µM / inhibition at 0.3 µM: CHK1 enzyme; for inhibition at 0.03 µM: compound 30 nM; for inhibition at 0.3 µM: compound 300 nM
Method: Inhibition of CHK-1 kinase or percent inhibition at defined concentrations was determined by TR-FRET assay. Kinase reactions were performed in a 20 μL volume in low-volume 384-well plates (Cat #Corning 4511). The concentration of substrate Fluorescein-CREBtide was maintained at 0.2 μM in the assay, and the kinase reaction buffer consisted of 50 mM HEPES pH 7.5, 0.01% BRIJ-35, 10 mM MgCl2, 1 mM EGTA. Serially diluted compounds (3-fold) in DMSO (0.5% in final reaction) were incubated with cocktail of CHK-1 kinase (6 nM; Cat #PR3959B, ThermoFisher), Fluorescein-CREBtide (0.2 μM; Cat #PV3508, ThermoFisher), ATP (15 μM; Cat #A1852, Sigma), and kinase reaction buffer. After 1 hour kinase reactions at room temperature, 10 μL of Detection mix (8 nM LanthaScreen® Tb-CREB [pSer133] antibody, Cat #PV3542, ThermoFisher with 20 mM EDTA in TR-FRET Buffer, Cat #PV3574, ThermoFisher) was added, and the plate was read with a plate reader (Synergy™ NEO; Biotek) for TR-FRET.
The resulting TR-FRET emission ratio was used to calculate the percent inhibition by normalizing to the control using the following formula: […]

[3] = Microsomal stability assay, rat liver microsome; format: in vitro ADME; settings: liver microsomes, pH 7.4, 0.2 mg/mL, 1 μM compound, 37° C., read-out: Clint RLM
Method: as §1

[4] = Kinetic solubility assay (nephelometry); settings: PBS, 37 °C, pH 7.4, aqueous buffer, kinetic from dmso stock

CHK-1 kinase, sequence (O14757 whole entry): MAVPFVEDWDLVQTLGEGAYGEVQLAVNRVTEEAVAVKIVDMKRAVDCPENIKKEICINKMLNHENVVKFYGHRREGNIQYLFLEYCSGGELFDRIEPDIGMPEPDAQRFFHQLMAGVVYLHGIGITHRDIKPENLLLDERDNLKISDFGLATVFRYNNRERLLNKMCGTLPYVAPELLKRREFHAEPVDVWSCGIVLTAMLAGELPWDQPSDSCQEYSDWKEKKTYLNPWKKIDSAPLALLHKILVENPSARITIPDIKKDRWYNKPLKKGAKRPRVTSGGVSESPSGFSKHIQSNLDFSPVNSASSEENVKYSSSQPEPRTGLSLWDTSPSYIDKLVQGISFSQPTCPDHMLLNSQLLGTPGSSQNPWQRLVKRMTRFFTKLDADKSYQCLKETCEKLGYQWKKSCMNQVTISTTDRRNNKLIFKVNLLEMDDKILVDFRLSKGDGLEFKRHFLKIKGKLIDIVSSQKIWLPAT

Row | SMILES | microsomal CLint at 1 μM [1] | microsomal CLint at 1 μM [2] | inhibition at 0.03 µM (CHK-1 kinase) | inhibition at 0.3 µM (CHK-1 kinase) | microsomal CLint at 1 μM [3] | solubility kinetic at 1 h [4] | IC50 (CHK-1 kinase; TR-FRET, read-out: CHK1 IC50)
1 | N#Cc1cnc(Nc2cc(-c3ccccc3OC3CCNC3)on2)cn1 (stereo not shown) [Compound 1.14, 5-(5-(2-(pyrrolidin-3-yloxy)phenyl)isoxazol-3-ylamino) pyrazine-2-carbonitrile] | 56 µL/min/mg | 34 µL/min/mg | 37% | 60% | 23 µL/min/mg | 39.6 µM (≈ 13.8 µg/mL) | –
2 | N#Cc1cnc(Nc2cc(-c3ccccc3O[C@H]3CC[C@@H](N)CC3)on2)cn1 [Compound 1.15, 5-(5-(2-((1s,4s)-4-aminocyclohexyloxy)phenyl)isoxazol-3-ylamino) pyrazine-2-carbonitrile] | 25 µL/min/mg | 12 µL/min/mg | 39% | 79% | 33 µL/min/mg | 100 µM (≈ 37.6 µg/mL) | –
3 | CN1CCCC(COc2ccccc2-c2cc(Nc3cnc(C#N)cn3)no2)C1 (stereo not shown) [Compound 1.16, 5-(5-(2-((1-methylpiperidin-3-yl)methoxy)phenyl)isoxazol-3-ylamino) pyrazine-2-carbonitrile] | 141 µL/min/mg | 117 µL/min/mg | 9% | 75% | 138 µL/min/mg | 38.2 µM (≈ 14.9 µg/mL) | –
4 | N#Cc1cnc(Nc2cc(-c3ccccc3OCC3CNC3)on2)cn1 [Compound 1.17, 5-(5-(2-(azetidin-3-ylmethoxy)phenyl)isoxazol-3-ylamino) pyrazine-2-carbonitrile] | 50 µL/min/mg | 26 µL/min/mg | 69% | 95% | 43 µL/min/mg | 48 µM (≈ 16.7 µg/mL) | –
5 | CCC(C)N1CC(Oc2ccccc2-c2cc(Nc3cnc(C#N)cn3)no2)C1 (stereo not shown) [Compound 1.18, 5-(5-(2-(1-sec-butyl-azetidin-3-yloxy)phen-yl)isoxazol-3-ylamino)-pyrazine-2-carbonitrile] | 297 µL/min/mg | 145 µL/min/mg | 4% | 28% | 130 µL/min/mg | 48 µM (≈ 18.7 µg/mL) | –
6 | N#Cc1cnc(Nc2cc(-c3ccccc3OC3CC(N)C3)on2)cn1 (stereo not shown) [Compound 1.20, 5-(5-(2-(3-aminocyclobutoxy)phenyl)isoxazol-3-ylamino) pyrazine-2-carbonitrile] | 86 µL/min/mg | 47 µL/min/mg | 60.2% | 91.9% | 46 µL/min/mg | 29.4 µM (≈ 10.2 µg/mL) | –
7 | N#Cc1cnc(Nc2cc(-c3ccccc3OC3CC4(CNC4)C3)on2)cn1 [Compound 1.21, 5-(5-(2-(2-azaspiro[3.3]heptan-6-yloxy)phenyl)isoxazol-3-ylamino) pyrazine-2-carbonitrile] | 18 µL/min/mg | 20 µL/min/mg | 78.7% | 95.5% | 37 µL/min/mg | 18.8 µM (≈ 7.04 µg/mL) | –
8 | N#Cc1cnc(Nc2cc(-c3ccccc3OCC3CCNC3)on2)cn1 (stereo not shown) [Compound 1.23, 5-(5-(2-(pyrrolidin-3-ylmethoxy)phenyl)isoxazol-3-ylamino) pyrazine-2-carbonitrile] | 52 µL/min/mg | 37 µL/min/mg | 82% | 99% | 50 µL/min/mg | 46.6 µM (≈ 16.9 µg/mL) | –
9 | N#Cc1cnc(Nc2cc(-c3cc4ccccc4cc3OCC3CCNCC3)[nH]n2)cn1 [Compound 2.1, 5-(5-(3-(piperidin-4-ylmethoxy)naphthalen-2-yl)-1H-pyrazol-3-ylamino) pyrazine-2-carbonitrile] | 101 µL/min/mg | 25 µL/min/mg | 27% | 91% | 36 µL/min/mg | 34.7 µM (≈ 14.8 µg/mL) | 2.46 nM
